Experimental data from US20230117324A1, “OXAZINE MONOACYLGLYCEROL LIPASE (MAGL) INHIBITORS” (Hoffmann-La Roche Inc., priority 2018, published 2023).

target: T1, MAGL (Homo sapiens, UniProt Q99685); assay: MAGL inhibition, 2-AG assay (hydrolysis of 2-arachidonoylglycerol, arachidonic acid by mass spectrometry); format: biochemical; settings: 2-AG assay (footnote [b])
T1 sequence (Q99685 1-303): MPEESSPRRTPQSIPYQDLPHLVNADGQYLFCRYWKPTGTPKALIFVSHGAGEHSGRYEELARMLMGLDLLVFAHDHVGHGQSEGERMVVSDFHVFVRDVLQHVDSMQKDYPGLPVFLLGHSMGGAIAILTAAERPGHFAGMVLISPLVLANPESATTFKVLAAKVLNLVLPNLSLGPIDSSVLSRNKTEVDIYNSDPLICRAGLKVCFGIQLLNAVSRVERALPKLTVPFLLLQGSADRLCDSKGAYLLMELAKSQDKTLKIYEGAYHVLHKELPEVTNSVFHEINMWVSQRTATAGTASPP
Method in brief: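 Hydrolysis of 8 μM 2-arachidonoylglycerol by […] was run for 30 min at RT after a 15 min compound preincubation, in Tris/EDTA/Tween buffer. Test compounds spanned […]. The product was measured by online SPE-MS/MS (transitions 303.1→259.1 and 311.1→267.0), and activity was derived from the arachidonic acid/d8-arachidonic acid signal ratio.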

Compound	IC50
O=C1CO[C@H]2CCN(C(=O)N3CC(c4ccc(N5CC(F)(F)C5)c(Cl)c4)C3)C[C@H]2N1 [Example 226, (4aR,8aS)-6-(3-(3-Chloro-4-(3,3-difluoroazetidin-1-yl)phenyl)azetidine-1-carbonyl)hexahydro-2H-pyrido[4,3-b][1,4]oxazin-3(4H)-one]	19 nM
O=C1CO[C@H]2CCN(C(=O)N3CC(c4ccc(N5CC6CC(C6)C5)cc4)C3)C[C@H]2N1 [Example 230, (4aR,8aS)-6-[3-[4-(3-Azabicyclo[3.1.1]heptan-3-yl)phenyl]azetidine-1-carbonyl]-4,4a,5,7,8,8a-hexahydropyrido[4,3-b][1,4]oxazin-3-one]	0.2 nM
CC1C(c2ccc(OC(F)(F)F)cc2)CN1C(=O)N1CC[C@@H]2OCC(=O)N[C@@H]2C1 (stereo partly drawn) [Example 231, (4aR,8aS)-6-(2-Methyl-3-(4-(Trifluoromethoxy)phenyl)azetidine-1-carbonyl)hexahydro-2H-pyrido[4,3-b][1,4]oxazin-3(4H)-one]	114 nM
O=C1CO[C@H]2CCN(C(=O)N3CCC(c4cc(Cl)cc(OCC(F)(F)F)c4)C3)C[C@H]2N1 (stereo partly drawn) [Example 233, (4aR,8aS)-6-(3-(3-Chloro-5-(2,2,2-trifluoroethoxy)phenyl)pyrrolidine-1-carbonyl)hexahydro-2H-pyrido[4,3-b][1,4]oxazin-3(4H)-one]	61 nM
O=C1CO[C@H]2CCN(C(=O)N3CCC(c4cc(Cl)cc(Cl)c4)C3)C[C@H]2N1 (stereo partly drawn) [Example 235, (4aR,8aS)-6-(3-(3,5-Dichlorophenyl)pyrrolidine-1-carbonyl)hexahydro-2H-pyrido[4,3-b][1,4]oxazin-3(4H)-one]	243 nM
COC1(C)CN(c2ccc(C3CN(C(=O)N4CC[C@@H]5OCC(=O)N[C@@H]5C4)C3)cc2)C1 [Example 236, (4aR,8aS)-6-(3-(4-(3-Methoxy-3-methylazetidin-1-yl)phenyl)azetidine-1-carbonyl)hexahydro-2H-pyrido[4,3-b][1,4]oxazin-3(4H)-one]	15 nM
Cn1ncc2cc(C3CN(C(=O)N4CC[C@@H]5OCC(=O)N[C@@H]5C4)C3)ccc21 [Example 241, (4aR,8aS)-6-(3-(1-Methyl-1H-indazol-5-yl)azetidine-1-carbonyl)hexahydro-2H-pyrido[4,3-b][1,4]oxazin-3(4H)-one]	245 nM
COc1cc(C2CN(C(=O)N3CC[C@@H]4OCC(=O)N[C@@H]4C3)C2)ccc1C [Example 250, (4aR,8aS)-6-[3-(3-Methoxy-4-methyl-phenyl)azetidine-1-carbonyl]-4,4a,5,7,8,8a-hexahydropyrido[4,3-b][1,4]oxazin-3-one]	106 nM
O=C1CO[C@H]2CCN(C(=O)N3CC(c4ccc(C(F)(F)F)c(F)c4)C3)C[C@H]2N1 [Example 254]	82 nM

Further lines, results first:

IC50	Compound
14 nM	CC1CN(c2cc(C3CN(C(=O)N4CC[C@@H]5OCC(=O)N[C@@H]5C4)C3)ccc2OC(F)(F)F)C1 [Example 227, (4aR,8aS)-6-(3-(3-(3-Methylazetidin-1-yl)-4-(trifluoromethoxy)phenyl)azetidine-1-carbonyl)hexahydro-2H-pyrido[4,3-b][1,4]oxazin-3(4H)-one]
7 nM	CC1(C)COc2cc(C3CN(C(=O)N4CC[C@@H]5OCC(=O)N[C@@H]5C4)C3)ccc21 [Example 232, (4aR,8aS)-6-(3-(3,3-Dimethyl-2,3-dihydrobenzofuran-6-yl)azetidine-1-carbonyl)hexahydro-2H-pyrido[4,3-b][1,4]oxazin-3(4H)-one]
2 nM	COC(=O)C(C)(C)c1ccc(C2CN(C(=O)N3CC[C@@H]4OCC(=O)N[C@@H]4C3)C2)cc1 [Example 234, Methyl 2-methyl-2-(4-(1-((4aR,8aS)-3-Oxooctahydro-2H-pyrido[4,3-b][1,4]oxazine-6-carbonyl)azetidin-3-yl)phenyl)propanoate]
1 nM	CC(C)(C)OC(=O)NCCOc1cccc(C(c2ccccc2)C2CCN(C(=O)N3CC[C@@H]4OCC(=O)N[C@@H]4C3)CC2)c1 (stereo partly drawn) [Example 237, tert-Butyl (2-(3-((1-((4aR,8aS)-3-oxooctahydro-2H-pyrido[4,3-b][1,4]oxazine-6-carbonyl)piperidin-4-yl)(phenyl)methyl)phenoxy)ethyl)carbamate]
2 nM	COc1cc(C2CN(C(=O)N3CC[C@@H]4OCC(=O)N[C@@H]4C3)C2)ccc1C(C)(C)C [Example 240, (4aR,8aS)-6-(3-(4-(tert-Butyl)-3-methoxyphenyl)azetidine-1-carbonyl)hexahydro-2H-pyrido[4,3-b][1,4]oxazin-3(4H)-one]
2 nM	CCCc1ccc(C2CN(C(=O)N3CC[C@@H]4OCC(=O)N[C@@H]4C3)C2)cc1 [Example 242, (4aR,8aS)-6-(3-(4-Propylphenyl)azetidine-1-carbonyl)hexahydro-2H-pyrido[4,3-b][1,4]oxazin-3(4H)-one]
10 nM	O=C1CO[C@H]2CCN(C(=O)N3CC(c4ccc(OC(F)(F)F)c(C(F)(F)F)c4)C3)C[C@H]2N1 [Example 243, (4aR,8aS)-6-(3-(4-(Trifluoromethoxy)-3-(trifluoromethyl)phenyl)azetidine-1-carbonyl)hexahydro-2H-pyrido[4,3-b][1,4]oxazin-3(4H)-one]
0.3 nM	O=C1CO[C@H]2CCN(C(=O)N3CC(c4ccc(OCC5(C(F)(F)F)CC5)cc4)C3)C[C@H]2N1 [Example 244, (4aR,8aS)-6-[3-[4-[[1-(Trifluoromethyl)cyclopropyl]methoxy]phenyl]azetidine-1-carbonyl]-4,4a,5,7,8,8a-hexahydropyrido[4,3-b][1,4]oxazin-3-one]
0.4 nM	CC(C)(c1ccc(C2CN(C(=O)N3CC[C@@H]4OCC(=O)N[C@@H]4C3)C2)cc1)C(F)(F)F [Example 245, (4aR,8aS)-6-[3-[4-(2,2,2-Trifluoro-1,1-dimethyl-ethyl)phenyl]azetidine-1-carbonyl]-4,4a,5,7,8,8a-hexahydropyrido[4,3-b][1,4]oxazin-3-one]
6 nM	O=C1CO[C@H]2CCN(C(=O)N3CC(c4ccc(CCCF)cc4)C3)C[C@H]2N1 [Example 247, (4aR,8aS)-6-[3-[4-(3-Fluoropropyl)phenyl]azetidine-1-carbonyl]-4,4a,5,7,8,8a-hexahydropyrido[4,3-b][1,4]oxazin-3-one]
1 nM	Cn1nc(OC(c2ccc(F)cc2)C2CCN(C(=O)N3CC[C@@H]4OCC(=O)N[C@@H]4C3)CC2)cc1C(F)(F)F (stereo partly drawn) [Example 251, (4aR,8aS)-6-(4-((4-Fluorophenyl)((1-methyl-5-(trifluoromethyl)-1H-pyrazol-3-yl)oxy)methyl)piperidine-1-carbonyl)hexahydro-2H-pyrido[4,3-b][1,4]oxazin-3(4H)-one]
2 nM	NCCOc1cccc(C(c2ccccc2)C2CCN(C(=O)N3CC[C@@H]4OCC(=O)N[C@@H]4C3)CC2)c1 (stereo partly drawn) [Example 252, (4aR,8aS)-6-[4-[[3-(2-Aminoethoxy)phenyl]-phenyl-methyl]piperidine-1-carbonyl]-4,4a,5,7,8,8a-hexahydropyrido[4,3-b][1,4]oxazin-3-one]
4 nM	O=C1CO[C@H]2CCN(C(=O)N3CC(c4nnc(-c5ccc(Cl)cc5Cl)o4)C3)C[C@H]2N1 [Example 253, (4aR,8aS)-6-[3-[5-(2,4-Dichlorophenyl)-1,3,4-oxadiazol-2-yl]azetidine-1-carbonyl]-4,4a,5,7,8,8a-hexahydropyrido[4,3-b][1,4]oxazin-3-one]
